Data as given in patent US20260240772A1 (priority 2022, published 2026).

Experiments:
[1] = system: normal mice; conditions: subcutaneous injection 10 mg kg^−1; 5-30 min; FIG. 10B
[2] = system: normal mice; conditions: subcutaneous injection 10 mg kg^−1; 1 hour after injection; FIG. 10G

Structure (SMILES): CN1CC[C@]23c4c5ccc(O)c4O[C@H]2[C@@H](O)C=C[C@H]3[C@H]1C5 [morphine single drug, morphine]
- heart rate compared with conditions before administration [1]: remarkably reduced
- number of fecal particles compared with the solvent group [2]: remarkably reduced
